Reference: patent publication US10689414B2 (Agios Pharmaceuticals, Inc., priority 2013, dated 2020)

system: U87MG cells; assay: Cellular assay, inhibition of 2-HG production in U87MG cells; format: cell-based; conditions: Homo sapiens, U-87 MG, 48 h
In short: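 HT1080 or U87MG cells (U87MG kept with 500 ug/mL G418) seeded at 5000 cells/well and treated with compound at 0.2% final DMSO. Incubated 48 h at 37 °C. 2-HG inhibition determined by LC-MS. Viability read by CellTiter-Glo luminescence at 72 h post-dose.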

Row | Molecule | IC50
1 | CN1CC(=O)N(c2cc(C#N)ccn2)[C@H](C(=O)N(c2cc(F)cc(F)c2)[C@H](C(=O)NC2CC(F)(F)C2)c2ccccc2Cl)C1 [Compound 101, (S)—N—((S)-1-(2-chlorophenyl)-2-((3,3-difluorocyclobutyl)amino)-2-oxoethyl)-1-(4-cyanopyridin-2-yl)-N-(3,5-difluorophenyl)-4-methyl-6-oxopiperazine-2-carboxamide] | < 100 nM
2 | N#Cc1ccnc(N2C(=O)CC[C@H]2C(=O)N(c2cccc(F)c2)[C@H](C(=O)NC2CC(F)(F)C2)c2ccccc2)c1 [Compound 138, (S)-1-(4-Cyanopyridin-2-yl)-N—((S)-2-((3,3-difluorocyclobutyl)amino)-2-oxo-1-phenylethyl)-N-(3-fluorophenyl)-5-oxopyrrolidine-2-carboxamide] | < 100 nM
3 | N#Cc1ccnc(N2C(=O)[C@H](O)C[C@H]2C(=O)N(c2cc(F)cc(F)c2)[C@H](C(=O)NC2CCC(F)(F)CC2)c2ccccc2Cl)c1 [Compound 125, (2S,4R)—N—((S)-1-(2-Chlorophenyl)-2-(4,4-difluorocyclohexylamino)-2-oxoethyl)-1-(4-cyanopyridin-2-yl)-N-(3,5-difluorophenyl)-4-hydroxy-5-oxopyrrolidine-2-carboxamide] | < 100 nM
4 | N#Cc1ccnc(N2C(=O)OCC[C@H]2C(=O)N(c2cc(F)cc(F)c2)[C@H](C(=O)NC2CCC(F)(F)CC2)c2ccccc2Cl)n1 [Compound 144, (S)—N—((S)-1-(2-Chlorophenyl)-2-((4,4-difluorocyclohexyl)amino)-2-oxoethyl)-3-(4-cyanopyrimidin-2-yl)-N-(3,5-difluorophenyl)-2-oxo-1,3-oxazinane-4-carboxamide] | < 100 nM
5 | N#Cc1ccnc(N2C(=O)[C@@H](O)C[C@H]2C(=O)N(c2cccc(F)c2)[C@H](C(=O)NC2CC(F)(F)C2)c2ccccc2Cl)c1 [Compound 118, (2S,4S)—N—((S)-1-(2-Chlorophenyl)-2-(3,3-difluorocyclobutylamino)-2-oxoethyl)-1-(4-cyano-pyridin-2-yl)-N-(3-fluorophenyl)-4-hydroxy-5-oxopyrrolidine-2-carboxamide] | < 100 nM
6 | CCOC(=O)CN1C[C@@H](C(=O)N(c2cccc(F)c2)[C@H](C(=O)NC2CC(F)(F)C2)c2ccccc2Cl)N(c2cc(C#N)ccn2)C1=O [Compound 94, Ethyl 2-((4S)-4-((1-(2-chlorophenyl)-2-((3,3-difluorocyclobutyl)amino)-2-oxoethyl)(3-fluorophenyl)carbamoyl)-3-(4-cyanopyridin-2-yl)-2-oxoimidazolidin-1-yl)acetate] | < 100 nM
7 | N#Cc1ccnc(N2C(=O)CC[C@H]2C(=O)N(c2cc(F)cc(F)c2)[C@H](C(=O)NC2CCC(F)(F)CC2)c2ccccc2Cl)c1 [Compound 81, (2S)—N-(1-(2-Chlorophenyl)-2-(4,4-difluorocyclohexylamino)-2-oxoethyl)-1-(4-cyanopyridin-2-yl)-N-(3,5-difluorophenyl)-5-oxopyrrolidine-2-carboxamide] | < 100 nM
8 | CCOC(=O)CN1C[C@@H](C(=O)N(c2cccc(F)c2)C(C(=O)NC2CC(F)(F)C2)c2ccccc2Cl)N(c2nccc(C#N)n2)C1=O (stereo partly drawn) [Compound 111, Ethyl 2-((4S)-4-((1-(2-chlorophenyl)-2-((3,3-difluorocyclobutyl)amino)-2-oxoethyl)(3-fluorophenyl)carbamoyl)-3-(4-cyanopyrimidin-2-yl)-2-oxoimidazolidin-1-yl)acetate] | < 100 nM
9 | N#Cc1ccnc(N2C(=O)CC[C@H]2C(=O)N(c2cc(F)cc(F)c2)[C@H](C(=O)NC2CC(F)(F)C2)c2ccccc2Cl)n1 [Compound 86, (S)—N—((S)-1-(2-Chlorophenyl)-2-((3,3-difluorocyclobutyl)amino)-2-oxoethyl)-1-(4-cyanopyrimidin-2-yl)-N-(3,5-difluorophenyl)-5-oxopyrrolidine-2-carboxamide] | < 100 nM
10 | O=C(NC1CCC(F)(F)CC1)[C@H](c1ccccc1Cl)N(C(=O)[C@@H]1CCC(=O)N1c1ncccn1)c1cccc(F)c1 [Compound 4, (S)—N—((S)-1-(2-chlorophenyl)-2-((4,4-difluorocyclohexyl)amino)-2-oxoethyl)-N-(3-fluoro-phenyl)-5-oxo-1-(pyrimidin-2-yl)pyrrolidine-2-carboxamide] | < 100 nM
11 | N#Cc1ccnc(N2C(=O)CN(C3CC3)C[C@H]2C(=O)N(c2cc(F)cc(F)c2)[C@H](C(=O)NC2CC(F)(F)C2)c2ccccc2Cl)c1 [Compound 106, (S)—N—((S)-1-(2-chlorophenyl)-2-((3,3-difluorocyclobutyl)amino)-2-oxoethyl)-1-(4-cyanopyridin-2-yl)-4-cyclopropyl-N-(3,5-difluorophenyl)-6-oxopiperazine-2-carboxamide] | < 100 nM
12 | N#Cc1ccnc(N2C(=O)CC[C@H]2C(=O)N(c2cccc(F)c2)[C@H](C(=O)NC2CC(F)(F)C2)c2ccccc2Cl)n1 [Compound 68, (S)—N—((S)-1-(2-Chlorophenyl)-2-((3,3-difluorocyclobutyl)amino)-2-oxoethyl)-1-(4-cyanopyrimidin-2-yl)-N-(3-fluorophenyl)-5-oxopyrrolidine-2-carboxamide] | < 100 nM
13 | CC(C)(C)OC(=O)N1CC(=O)N(c2nccc(C#N)n2)[C@H](C(=O)N(c2cc(F)cc(F)c2)[C@H](C(=O)NC2CCC(F)(F)CC2)c2ccccc2Cl)C1 [Compound 93, (S)-tert-Butyl 3-(((S)-1-(2-chlorophenyl)-2-((4,4-difluorocyclohexyl)amino)-2-oxoethyl)(3,5-difluorophenyl)carbamoyl)-4-(4-cyanopyrimidin-2-yl)-5-oxopiperazine-1-carboxylate] | < 100 nM
14 | N#Cc1ccnc(N2C(=O)CC[C@H]2C(=O)N(c2cccc(S(N)(=O)=O)c2)[C@H](C(=O)NC2CC(F)(F)C2)c2ccccc2Cl)c1 [Compound 84, (S)—N—((S)-1-(2-Chlorophenyl)-2-(3,3-difluorocyclobutylamino)-2-oxoethyl)-1-(4-cyanopyridin-2-yl)-5-oxo-N-(3-sulfamoylphenyl)pyrrolidine-2-carboxamide] | 100 to 500 nM
15 | N#Cc1ccnc(N2C(=O)CC[C@H]2C(=O)N(c2cc(F)cc(F)c2)[C@H](C(=O)NC2CCC(F)(F)CC2)c2ccccc2Cl)n1 [Compound 87, (S)—N—((S)-1-(2-Chlorophenyl)-2-((4,4-difluorocyclohexyl)amino)-2-oxoethyl)-1-(4-cyanopyrimidin-2-yl)-N-(3,5-difluorophenyl)-5-oxopyrrolidine-2-carboxamide] | < 100 nM

The next lines start with the values.

Row | IC50 | Molecule
16 | < 100 nM | CC(C)(O)c1cccc(N(C(=O)[C@@H]2CCC(=O)N2c2cc(C#N)ccn2)[C@H](C(=O)NC2CC(F)(F)C2)c2ccccc2Cl)c1 [Compound 179, (S)—N—((S)-1-(2C)-2-((3,3-difluorocyclobutyl)amino)-2-oxoethyl)-1-(4-cyanopyridin-2-yl)-N-(3-(2-hydroxypropan-2-yl)phenyl)-5-oxopyrrolidine-2-carboxamide]
17 | < 100 nM | N#Cc1ccnc(N2C(=O)CC[C@H]2C(=O)N(c2cc(F)cc(S(N)(=O)=O)c2)[C@H](C(=O)NC2CC(F)(F)C2)c2ccccc2Cl)c1 [Compound 158, (2S)—N-(1-(2-chlorophenyl)-2-(3,3-difluorocyclobutylamino)-2-oxo-ethyl)-1-(4-cyanopyridin-2-yl)-N-(3-fluoro-5-sulfamoylphenyl)-5-oxopyrrolidine-2-carboxamide]
18 | < 100 nM | CS(=O)(=O)c1cc(F)cc(N(C(=O)[C@@H]2CCC(=O)N2c2nccc(C#N)n2)[C@H](C(=O)NC2CCC(F)(F)CC2)c2ccccc2Cl)c1 [Compound 168, (S)—N—((S)-1-(2-Chlorophenyl)-2-((4,4-difluorocyclohexyl)amino)-2-oxoethyl)-1-(4-cyanopyrimidin-2-yl)-N-(3-fluoro-5-(methylsulfonyl)phenyl)-5-oxopyrrolidine-2-carboxamide]
19 | < 100 nM | [2H]c1c([2H])c([2H])c([C@@H](C(=O)NC2CC(F)(F)C2)N(C(=O)[C@@H]2CCC(=O)N2c2cc(C#N)ccn2)c2cc(F)cc(F)c2)c(Cl)c1[2H] [Compound 163]
20 | < 100 nM | CS(=O)(=O)Nc1cccc(N(C(=O)[C@@H]2CCC(=O)N2c2cc(C#N)ccn2)[C@H](C(=O)NC2CC(F)(F)C2)c2ccccc2Cl)c1 [Compound 159, (S)—N—((S)-1-(2-Chlorophenyl)-2-(3,3-difluorocyclobutylamino)-2-oxoethyl)-1-(4-cyanopyridin-2-yl)-N-(3-(methylsulfonamido)phenyl)-5-oxopyrrolidine-2-carboxamide]
21 | < 100 nM | N#Cc1cc(F)cc(N(C(=O)[C@@H]2C[C@@H](O)C(=O)N2c2cc(C#N)ccn2)C(C(=O)NC2CC(F)(F)C2)c2ccccc2Cl)c1 (mixture of isomers) [Compound 169, (2S,4R)—N-(1-(2-Chlorophenyl)-2-(3,3-difluorocyclobutylamino)-2-oxoethyl)-N-(3-cyano-5-fluorophenyl)-1-(4-cyanopyridin-2-yl)-4-hydroxy-5-oxopyrrolidine-2-carboxamide]
22 | < 100 nM | N#Cc1ccnc(N2C(=O)CC[C@H]2C(=O)N(c2cc(F)ccc2F)[C@H](C(=O)NC2CC(F)(F)C2)c2ccccc2Cl)c1 [Compound 197, (S)—N—((S)-1-(2-Chlorophenyl)-2-((3,3-difluorocyclobutyl)amino)-2-oxoethyl)-1-(4-cyanopyridin-2-yl)-N-(2,5-difluorophenyl)-5-oxopyrrolidine-2-carboxamide]
23 | < 100 nM | N#Cc1ccnc(N2C(=O)CC[C@H]2C(=O)N(c2ccc3[nH]ncc3c2)[C@H](C(=O)NC2CCC(F)(F)CC2)c2ccccc2Cl)c1 [Compound 203, (S)—N—((S)-1-(2-Chlorophenyl)-2-((4,4-difluorocyclohexyl)amino)-2-oxoethyl)-1-(4-cyanopyridin-2-yl)-N-(1H-indazol-5-yl)-5-oxopyrrolidine-2-carboxamide]

same assay, conditions: inhibition of 2-HG production, U87MG cells, 48 hours

Row | IC50 | Molecule
24 | < 100 nM | (S)—N—((S)-1-(2-Chlorophenyl)-2-((4,4-difluorocyclohexyl)amino)-2-oxoethyl)-1-(4-cyanopyridin-2-yl)-N-(1H-indazol-6-yl)-5-oxopyrrolidine-2-carboxamide [Compound 136]
